Patent US8158579B2, “Fusion protein of an exendin to modified transferrin” (BioRexis Pharmaceutical Corporation, priority 2006, dated 2012)
Where “and” joins values, the source holds several entries; their conditions need not be identical. Equal entries are not always repeated. Where two headings read alike, the source gives them in different places.

Columns and labels:
Sprague Dawley rats = assay: rat body weight, daily subcutaneous injections; format: in vivo
Description: The rats were weighed everyday (prior to dosing on dosing days). Animals had full access to food and water at all times.
By day five, the animals treated with 100 nmole/kg doses lost an average of 75 grams (17%) body weight compared to controls, and the weight loss is related to a drop in food and water intake. Because of the dramatic and acute weight loss observed, daily administration of the drug was stopped at day five. After the 5 day administration period, all animals gained weight at a similar rate.

[1] = mouse, in vivo, inhaled or intranasal
Experimental: The inhalation time in the chamber was chosen so that the animals would receive an exposure equivalent to the 0.3, 1 and 3 mg/kg dose administered subcutaneously. As a control, these doses were administered subcutaneously (SC) to compare in vivo activity to the inhaled route of administration.

human GLP-1 receptor = biological target: T1, human GLP-1 receptor (Homo sapiens, UniProt P43220); assay: cell-based cAMP assay in CHO cells expressing the human GLP-1 receptor (FIG. 4)
T1 construct: expressed in transfected cells; host or cells: CHO
T1 sequence (P43220 24-463): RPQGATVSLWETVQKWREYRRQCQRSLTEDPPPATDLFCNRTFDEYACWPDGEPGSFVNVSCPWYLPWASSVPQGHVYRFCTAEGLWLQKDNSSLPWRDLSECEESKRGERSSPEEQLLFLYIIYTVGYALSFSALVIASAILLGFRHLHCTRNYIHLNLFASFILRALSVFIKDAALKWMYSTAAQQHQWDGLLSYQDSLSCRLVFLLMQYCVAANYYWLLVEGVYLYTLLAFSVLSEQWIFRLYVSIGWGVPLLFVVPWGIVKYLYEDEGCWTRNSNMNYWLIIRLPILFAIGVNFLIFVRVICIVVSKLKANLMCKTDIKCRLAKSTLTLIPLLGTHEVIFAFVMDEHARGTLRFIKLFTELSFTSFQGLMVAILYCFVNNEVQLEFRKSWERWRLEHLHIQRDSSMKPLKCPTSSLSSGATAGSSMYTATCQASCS

[2] = effect of aerosolization on integrity and activity of the fusion protein; format: physicochemical
Description: (§1) Aerosols were generated with an Aerotech II compressed air jet nebulizer (CIS-US Inc., Bedford, Mass.) and directed through a 1.58 cm diameter stainless steel aerosol delivery line into a 24-port flow past rodent exposure system (IN-TOX, ABQ, NM). The exhaust flow rate out of the chamber was ˜11.5 L/min. The nebulizer pressure was maintained at ˜30 psi.

[3] = cynomolgus monkey, in vivo, 1 mg/kg
diabetic mice (db/db) = assay: blood glucose in db/db mice after inhalation of aerosolized fusion protein; format: in vivo; conditions: inhalation exposure equivalent to 0.3, 1 and 3 mg/kg
Description: as §1

[4] = biological target: T2, matrix metalloprotease I (MMP-1, collagenase) (Homo sapiens, UniProt P03956); format: in vitro ADME
T2 sequence (P03956 100-469): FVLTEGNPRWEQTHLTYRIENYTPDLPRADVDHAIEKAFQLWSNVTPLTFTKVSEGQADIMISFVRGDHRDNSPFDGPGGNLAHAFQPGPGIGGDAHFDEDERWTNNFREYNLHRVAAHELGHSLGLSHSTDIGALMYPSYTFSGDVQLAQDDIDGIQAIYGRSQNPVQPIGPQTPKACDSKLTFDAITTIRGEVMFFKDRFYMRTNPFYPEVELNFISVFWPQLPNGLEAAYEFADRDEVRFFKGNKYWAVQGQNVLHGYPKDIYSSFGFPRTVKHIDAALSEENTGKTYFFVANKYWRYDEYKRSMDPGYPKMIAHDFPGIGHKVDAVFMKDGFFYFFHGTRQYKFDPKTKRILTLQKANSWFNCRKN
Description: This difference in degradation occurs despite the close similarity in amino acid sequence in the active portion of the molecules.

rat GLP-1 receptor = biological target: T3, rat GLP-1 receptor (Rattus norvegicus, UniProt P32301); assay: cAMP potency assay in CHO cells transfected with the rat GLP-1 receptor (CHO-GLP-1R); format: cell-based
T3 construct: expressed in transfected cells; host or cells: CHO (CHO-GLP-1R)
T3 sequence (P32301 22-463): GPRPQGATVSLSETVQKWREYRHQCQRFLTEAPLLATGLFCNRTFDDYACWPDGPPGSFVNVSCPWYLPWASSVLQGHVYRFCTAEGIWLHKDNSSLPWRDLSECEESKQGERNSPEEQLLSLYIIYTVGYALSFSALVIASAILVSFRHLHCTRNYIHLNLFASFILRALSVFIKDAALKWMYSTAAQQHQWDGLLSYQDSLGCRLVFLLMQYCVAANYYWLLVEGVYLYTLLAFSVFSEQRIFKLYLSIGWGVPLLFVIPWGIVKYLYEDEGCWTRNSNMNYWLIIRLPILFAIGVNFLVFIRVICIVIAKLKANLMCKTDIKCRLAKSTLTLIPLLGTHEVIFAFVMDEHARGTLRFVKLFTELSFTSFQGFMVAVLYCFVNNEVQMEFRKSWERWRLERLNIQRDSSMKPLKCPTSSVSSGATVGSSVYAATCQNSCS
Experimental: 96-well tissue culture plates were seeded with CHO-GLP-1R cells and cultured overnight. The following day, the cells were rinsed with Krebs-Ringer buffer (KRB) and incubated in KRB containing the phosphodiesterase inhibitor 3-isobutyl-1-methylxanthine (IBMX, 2 mM) to inhibit intracellular enzymes that process cAMP. Serial dilutions of test compounds and controls were prepared in KRB/IBMX and triplicate wells of cells were inoculated with samples and controls. After incubation, individual sample lysates were then assayed to measure the increase in intracellular cAMP levels using a competition-based fluorescent immunoassay (CatchPoint® cAMP Fluorescent Assay Kit, Molecular Devices Corp., Sunnyvale, Calif.).

Diabetic (db/db) mice = assay: blood glucose in diabetic (db/db) mice after subcutaneous injection; format: in vivo
mice = assay: body weight in mice after a single dose; format: in vivo; conditions: for average drop in body weight: twenty-four hours after administration
Description: Such a dose can also be administered once per two weeks or once per month.

exendin-4(1-39) (PEAPTD)2 (SEQ ID NO: 5) mTf fusion protein: exendin-4(1-39) (SEQ ID NO: 4) linked via linker (PEAPTD)2 to modified transferrin mTf (SEQ ID NO: 17); sequence SEQ ID NO: 23
body weight loss (Sprague Dawley rats; 100 nmole/kg daily administration, rats): 17% and 16%
average body weight loss compared to controls (Sprague Dawley rats; 100 nmole/kg daily, by day five): 75 grams
body weight change (Sprague Dawley rats; 10 and 100 nmole/kg doses): lost weight after the first injection
body weight versus control animals after end of dosing (Sprague Dawley rats; 20 days following the last administration): still weighed less than the control animals
bioavailability [1]: approximately 10%
EC50 (human GLP-1 receptor; cell-based cAMP assay, FIG. 4): 0.0313 nM
potency relative to exendin-4 (fold less potent) (human GLP-1 receptor; in vitro, CHO cells expressing the human GLP-1 receptor): approximately 5 fold
effect of aerosolization on structure ([2]; 10 mg/mL in 10 mM histidine pH 7.4, 100 mM NaCl, nebulized, SDS-PAGE and SEC-HPLC): no detectable adverse effect on the structure
biological activity of material recovered after aerosolization ([2]; condensed liquid from the aerosol): biologically active
Vz ([3]; iv): 65.9 ± 31.0 mL/kg
λ z ([3]; iv): 0.0313 ± 0.0137 h − 1
F ([3]; sc): 49.0%
λ z ([3]; sc): 0.0252 ± 0.0084 h − 1
blood glucose levels after inhalation (diabetic mice (db/db)): significant drop
resistance to inactivation by MMP-1 [4]: resistant to inactivation by MMP-1
EC50 (rat GLP-1 receptor; cAMP accumulation in CHO-GLP-1R cells): 0.16 nM
potency relative to the GLP-1(7-37,A8G,K34A) (PEAPTD)2 mTf fusion protein (rat GLP-1 receptor; in vitro activation of the GLP-1 receptor): four-eight fold more potent
time the almost normalized glucose level persisted (Diabetic (db/db) mice; all treatment groups): 24 h
dose that significantly reduced blood glucose (Diabetic (db/db) mice; by 3 hours after subcutaneous injection): ≤ 1.3 nmol/kg
effect on blood glucose compared with equivalent doses of the GLP-1(7-37,A8G,K34A) (PEAPTD)2 mTf fusion protein (Diabetic (db/db) mice; equivalent doses): significantly greater and of a longer duration
time at which glucose concentrations returned to pretreatment levels (Diabetic (db/db) mice; post-treatment, depending on the dose): 48 to 72 h
reduction in blood glucose (Diabetic (db/db) mice; reduction seen in db/db mice): approximately 70%
dose correlated with a reduction in animal body weight (mice; mice and rats): ≥ 10 nmol/kg
average drop in body weight (mice; single dose 10 nmole/kg): 6%
average drop in body weight (mice; single dose 100 nmole/kg): 14%
